Columns and labels:
[1] = biological target: T1, PLA2 activity in human synovial fluid (HSF) (Homo sapiens, UniProt P14555); assay: Phospholipase A2 (PLA2) enzymatic assay - % Inhibition of HSF-PLA2; assay type: biochemical; conditions: for inhibition at 5 µM: read-out: % Inhib. of HSF-PLA2 at 5 μM
T1 construct: Synovial fluid was obtained from patients with rheumatoid arthritis; from tissue; host or cells: cell-depleted synovial fluid of patients with rheumatoid arthritis
T1 sequence (P14555 21-144): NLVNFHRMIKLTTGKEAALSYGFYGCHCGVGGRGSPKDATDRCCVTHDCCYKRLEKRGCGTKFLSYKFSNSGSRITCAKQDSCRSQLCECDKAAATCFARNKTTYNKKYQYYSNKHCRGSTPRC
Description: 1, Phospholipase A2 (PLA2) enzymatic assay - % Inhibition of HSF-PLA2
PLA2 assay procedure described by Hope et al., Inflammation 14:543-559 (1.990) was utilized to measure the inhibitory activity of the invention (inhibitor) against PLA2 activity in human synovial fluid (HSF). Synovial fluid was obtained from patients with rheumatoid arthritis. The assay procedure measured the release of [1-^14 C]oleic acid from the sn-2 position of phospholipids in autoclaved Escherichia coli previously grown in media containing [1-^14 C]oleic acid. The standard assay reaction conditions included 1×10^9 Escherichia coil (10,000 dpm ^14 C), 0.15% (v/v) cell-depleted HSF, (which was equivalent to 66 μg protein/mL) 2 mM CaCl2, 150 mM NaCl, 50 mM sodium (N-[2-hydroxyethyl] piperazine-N'-[2-ethanesulfonate]) (HEPES) buffer (pH 7.3), 1% dimethyl sulfoxide (DMSO) and various concentrations of inhibitor in a total volume of 0.5 ml. Inhibitors were dissolved in DMSO and added. The reaction was initiated by addition of HSF, incubated for 30 min at 37° C. and then stopped by addition of 2.5 ml of chloroform/methanol (1:1.5, v/v). The total lipids were extracted by the method of Bligh, E. G., and Dyer, W. J, Can. J. Biochem. Physiol. 37:911-917 (1959) by the further addition of 0.5 mL of chloroform and 1 mL of water with mixing. The lipid extract was redissolved in chloroform/methanol (9:1, v/v) containing 10 ug of carrier oleic acid. The oleic acid was separated from phospholipids by thin layer chromatography using gel-impregnated glass fiber sheets (ITLC type SG sheets). The sheets were preactivated by heating at 110° C. for 30 min. The lipid extract was applied to the sheets and chromatographed for 6 minutes, using hexane/acetic acid (100:1, v/v). The positions on the sheet containing oleic acid and phospholipids were visualized by exposure to iodine vapor and located by comparison to standards. The oleic acid and phospholipid zones were cut from the sheets, shaken individually with 2 ml of ethanol/water (80:20, v/v) and 15 ml of Aquasol, then counted for [^14 C] radioactivity (dpm). PLA2 activity, expressed as percent hydrolysis, was calculated from the formula: [formula] and was corrected for nonenzymatic hydrolysis of the substrate. Percent inhibition due to the presence of drug was calculated from the formula: [formula]
When various concentrations of a Compound of Formula I were tested, the percent inhibition at each concentration was plotted as log concentration (abscissa) versus percent inhibition (ordinate) and the IC50 was determined from this plot.

[2] = tested on: carrageenan-induced paw edema in rats; assay: Carrageenan-induced paw edema model of inflammation; assay type: in vivo; conditions: 2 hr, rat, read-out: Carrageenan ind. paw edema % Inhib. 2 hr; for inhibition in vivo at 100 mg/kg: 100 mg/Kg po; for inhibition in vivo at 30 mg/kg: 30 mg/Kg ip
[3] = tested on: cellular PLA2; assay: Inhibition of Cellular Phospholipase A2 (A23187-stimulated macrophages); assay type: cell-based; conditions: 5 μM; rat peritoneal macrophages, A-23187 stimulated
Procedure: II. Inhibition of Cellular Phospholipase A2. - % Inhibition of Cellular PLA2
Resident macrophages were obtained from rats by peritoneal lavage with phosphate buffered saline minus Ca2^++ and Mg2^++ (PBS). Cells were washed 3 times with PBS and resuspended in Dulbecco's Modified Eagle's Medium (GiBco) containing L-glutamine low D-glucose (1000 mg/L), and sodium pyruvate (110 mg/L), supplemented with 10% fetal calf serum. Cells were counted on a Coulter ZBI cell counter and then resuspended to a concentration of 6×10^6 cells/1.5 ml. The cell suspension (1.5 ml culture dishes (35 mm) and the cells were allowed to adhere to the dishes for 90 minutes at 37° C. Dishes were washed 3 times with PBS to remove non-adherent cells. [^14 C]arachidonic acid ([^14 C]-AA, approximately […], were added to the cells (1 uCi/dish) and allowed to incorporate for 120 minutes. Medium containing unincorporated [^14 C]-AA was removed and the cell layer was again washed 3 times with PBS. Inhibitors were dissolved in dimethylsulfoxide (DMSO) and added directly to the macrophages in Hank's Balanced Salt Solution (GiBco) phosphate-buffered, pH 7.4) to obtain the desired final concentration. Cells were incubated with drug or DMSO for 30 minutes at 37° C. and were then stimulated with calcium-ionophore A-23187 (0.75 uM) for 20 minutes. The extracellular medium was removed and the [^14 C] radioactivity released into this medium from AA metabolism was measured by liquid scintillation spectroscopy. The amounts of LTB4 and PGE2 were measured in the extracellular medium by radio immunoassay with specific antisera. The effects of inhibitor were measured as percent inhibition of A23187- stimulated AA metabolite release (^14 C release, PGE2 and LTB4 production) (control) which were calculated from the formula: [formula] IC50 's were calculated as described in the HSF-PLA2 assay.

| inhibition at 5 µM [1] [%] | SMILES | % Inhib. of cellular PLA2 at 5 μM [3] [%] | other results |
| --- | --- | --- | --- |
| 42 | COc1ccc(Cn2c3c(c4cc(Oc5ccc(C(=O)O)o5)ccc42)CCCC3)cc1OC [Example 150, 5-[[1,2,3,4-tetrahydro-9-[(3,4-dimethoxyphenyl)methyl]-9H-dibenzo[b,d]pyrrol-6-yl]oxy]-2-furancarboxylic acid] | 96 | inhibition in vivo at 30 mg/kg [2]: 45% |
| 66 | CCCCCCCCCCCCn1c2c(c3cc(Oc4ccc(C(=O)O)o4)ccc31)CCCC2 [Example 141, 5-[(1,2,3,4-tetrahydro-9-dodecyl-9H-dibenzo[b,d]pyrrol-6-yl)oxy]-2-furancarboxylic acid] | 74 |  |
| 62 | COc1ccc(Cn2c3c(c4cc(Oc5ccc(C(=O)O)o5)ccc42)CCCC3)cc1 [Example 149, 5-[[1,2,3,4-tetrahydro-9-[(4-methoxyphenyl)methyl]-9H-dibenzo[b,d]pyrrol-6-yl]oxy]-2-furancarboxylic acid] | 99 | inhibition in vivo at 30 mg/kg [2]: 48% |
| 76 | CCCCCCCc1ccc(Cn2c3c(c4cc(Oc5ccc(C(=O)O)o5)ccc42)CCCC3)cc1 [Example 143, 5-[[1,2,3,4-tetrahydro-9-(4-heptylphenyl)methyl-9H-dibenzo[b,d]pyrrol-6-yl]oxy]-2-furancarboxylic acid] | 65 |  |
| 63 | CCCCCCCCn1c2c(c3cc(Oc4ccc(C(=O)O)o4)ccc31)CCCC2c1cccc(OC)c1 (racemic) [Example 153, rac-5-[[1,2,3,4-tetrahydro-1-(3-methoxyphenyl)-9-octyl-9H-dibenzo[b,d]pyrrol-6-yl]oxy]-2-furancarboxylic acid] | 74 | IC50 ([1]; human synovial fluid PLA2, 30 min at 37° C., pH 7.3): 2.4 µM |
| 65 | O=C(O)c1ccc(Oc2ccc3c(c2)c2c(n3Cc3ccccc3F)CCCC2)o1 [Example 148, 5-[[1,2,3,4-tetrahydro-9-[(2-fluorophenyl)methyl]-9H-dibenzo[b,d]pyrrol-6-yl]oxy]-2-furancarboxylic acid] | 97 |  |
| 72 | Cc1ccc(Cn2c3c(c4cc(Oc5ccc(C(=O)O)o5)ccc42)CCCC3)cc1 [Example 151, 5-[[1,2,3,4-tetrahydro-9-[(4-methylphenyl)methyl]-9H-dibenzo[b,d]pyrrol-6-yl]oxy]-2-furancarboxylic acid] | 93 |  |
| 55 | CCCCCCCn1c2c(c3cc(Oc4ccc(C(=O)O)o4)ccc31)CCCC2 [Example 140, 5-[(1,2,3,4-tetrahydro-9-heptyl-9H-dibenzo[b,d]pyrrol-6-yl)oxy]-2-furancarboxylic acid] | 97 |  |

More lines, now with the values behind:

| SMILES | inhibition at 5 µM [1] [%] | % Inhib. of cellular PLA2 at 5 μM [3] [%] | other results |
| --- | --- | --- | --- |
| CCCCCCCCn1c2c(c3ccc(Oc4ccc(C(=O)O)o4)cc31)CCCC2 [Example 133, 5-[(1,2,3,4-tetrahydro-9-octyl-9H-dibenzo[b,d]pyrrol-7-yl)oxy]-2-furancarboxylic acid] | 31 | 85 | inhibition in vivo at 100 mg/kg [2]: 58% |
| Cn1c2c(c3cc(Oc4ccc(C(=O)O)o4)ccc31)CCCC2 [Example 138, 5-[(1,2,3,4-tetrahydro-9-methyl-9H-dibenzo[b,d]pyrrol-6-yl)oxy]-2-furancarboxylic acid] | 39 | 13 |  |
| O=C(O)c1ccc(Oc2ccc3c(c2)c2c(n3Cc3ccc(Cl)cc3)CCCC2)o1 [Example 139, 5-[[1,2,3,4-tetrahydro-9-(4-chlorophenyl)methyl-9H-dibenzo[b,d]pyrrol-6-yl]oxy]-2-furancarboxylic acid] | 31 | 100 | inhibition in vivo at 30 mg/kg [2]: 68% |
| CCCCCCCCn1c2c(c3cc(/C(C)=C/c4ccc(C(=O)O)o4)ccc31)CCCC2 [Example 47, (E)-5-[2-methyl-2-(1,2,3,4-tetrahydro-9-octyl-9H-dibenzo[b,d]pyrrol-6-yl)ethenyl]-2-furancarboxylic acid] | 59 | 77 | inhibition in vivo at 20 mg/kg ([2]; 20 mg/Kg ip): 70%; inhibition in vivo at 100 mg/kg [2]: 49% |
| CCCCCCCCn1c2c(c3cc(Oc4ccc(C(=O)O)o4)ccc31)CC(C)(C)CC2 [Example 135, 5-[(1,2,3,4-tetrahydro-3,3-dimethyl-9-octyl-9H-dibenzo[b,d]pyrrol-6-yl)oxy]-2-furancarboxylic acid] | 66 | 90 |  |
| Cc1cc(C)c(Cn2c3c(c4cc(Oc5ccc(C(=O)O)o5)ccc42)CCCC3)c(C)c1 [Example 152, 5-[[1,2,3,4-tetrahydro-9-[(2,4,6-trimethylphenyl)methyl]-9H-dibenzo[b,d]pyrrol-6-yl]oxy]-2-furancarboxylic acid] |  | 89 | inhibition at 10 µM ([1]; 10 μM (footnote a), read-out: % Inhib. of HSF-PLA2 (a: % Inhibition at 10 μM)): 72% |
| CCCCCCCCn1c2c(c3cc(CCc4ccc(C(=O)O)o4)ccc31)CCCC2 [Example 55, 5-[2-(1,2,3,4-tetrahydro-9-octyl-9H-dibenzo[b,d]pyrrol-6-yl)ethyl]-2-furancarboxylic acid] | 73 | 91 | inhibition in vivo at 10 mg/kg ([2]; 10 mg/Kg ip): 59%; inhibition in vivo at 100 mg/kg [2]: 49% |
| CCCCCCCCn1c2c(c3cc(/C=C/c4ccc(C(=O)O)o4)ccc31)C(C)(C)CC(C)(C)C2 [Example 46, (E)-5-[2-(1,2,3,4-tetrahydro-2,2,4,4-tetramethyl-9-octyl-9H-dibenzo[b,d]pyrrol-6-yl)ethenyl]-2-furancarboxylic acid] | 75 | 48 |  |
| O=C(O)c1ccc(Oc2ccc3c(c2)c2c(n3Cc3ccc(Br)cc3)CCCC2)o1 [Example 137, 5-[[1,2,3,4-tetrahydro-9-(4-bromophenyl)methyl-9H-dibenzo[b,d]pyrrol-6-yl]oxy]-2-furancarboxylic acid] | 36 | 100 |  |
| CCCCCCCCn1c2c(c3cc(/C(C)=C/c4ccc(C(=O)O)o4)ccc31)C(C)(C)CC(C)(C)C2 [Example 49, (E)-5-[2-methyl-2-(1,2,3,4-tetrahydro-2,2,4,4-tetramethyl-9-octyl-9H-dibenzo[b,d]pyrrol-6yl)ethenyl]-2-furancarboxylic acid] | 83 | 15 |  |
| CCCCn1c2c(c3cc(Oc4ccc(C(=O)O)o4)ccc31)CCCC2 [Example 136, 5-[(1,2,3,4-tetrahydro-9-butyl-9H-dibenzo[b,d]pyrrol-6-yl)oxy]-2-furancarboxylic acid] | 12 | 85 |  |
